Laboratory results: US9353082B2, “Pharmaceutical compounds” (BIAL—PORTELA & CA, S.A., priority 2008, dated 2016)

Target: T1, FAAH (Rattus norvegicus, UniProt P97612)
T1 construct: Frozen brains (without cerebellum) from Wistar rats were used; from tissue; host or cells: Wistar rat brain (without cerebellum), washed membrane pellets
T1 sequence (P97612 1-579): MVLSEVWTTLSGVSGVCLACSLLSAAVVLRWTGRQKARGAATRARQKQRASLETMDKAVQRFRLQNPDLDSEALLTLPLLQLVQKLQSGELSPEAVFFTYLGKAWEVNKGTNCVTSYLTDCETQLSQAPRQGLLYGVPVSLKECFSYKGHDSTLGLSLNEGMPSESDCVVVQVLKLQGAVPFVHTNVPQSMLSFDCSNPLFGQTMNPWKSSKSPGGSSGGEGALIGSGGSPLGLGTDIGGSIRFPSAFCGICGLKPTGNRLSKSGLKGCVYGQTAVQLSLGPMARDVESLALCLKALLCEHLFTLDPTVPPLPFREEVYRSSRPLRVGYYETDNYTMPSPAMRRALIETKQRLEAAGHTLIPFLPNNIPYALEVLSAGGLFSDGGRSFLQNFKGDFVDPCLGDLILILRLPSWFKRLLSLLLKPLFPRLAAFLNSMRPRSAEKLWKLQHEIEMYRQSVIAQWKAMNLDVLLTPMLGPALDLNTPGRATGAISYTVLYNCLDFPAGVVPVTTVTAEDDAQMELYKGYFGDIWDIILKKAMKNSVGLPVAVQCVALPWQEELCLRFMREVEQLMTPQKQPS
Experiment: In vitro FAAH activity in rat brain membranes, 3H-AEA substrate, % of control
Assay type: biochemical, Wistar rats
Conditions: low value = strong inhibitor; for In Vitro FAAH activity, 100 nM: 100 nM test compound; for In Vitro FAAH activity, 10 uM: 10 uM test compound
Protocol: 3. Biological Efficacy of Compounds of the Invention The in vitro test was performed according to the protocol described below. The controls for both in vitro and in vivo were the reaction mix minus the test compounds. Therefore, a low value in Table 1 below for the test compounds indicates a strong inhibitor.
The in vitro pharmaceutical FAAH activity was determined according to the following method:
Frozen brains (without cerebellum) from Wistar rats were used, and each brain was homogenized in 15 ml 1 mM MgCL2, […] HEPES pH 7.0 with Potter Elvejhem (8 strokes at 500 rpm). Homogenates were centrifuged for 20 min at 36000 g at 4° C. (Beckman, 70Ti rotor). Pellets were resuspended in 15 ml of the same buffer and centrifuged under the same conditions. Pellets were resuspended in 15 ml of the same buffer and incubated for 15 min at 37° C. after which they were centrifuged for 20 min at 36000 g at 4° C. Each pellet was then resuspended in 15 ml 3 mM MgCl2, 1 mM EDTA, 50 mM Tris pH 7.4 and protein determined with BioRad Protein Assay (BioRad) using a standard curve of BSA (50-250 μg/ml). The membrane suspensions were aliquoted and stored at −80° C.
The FAAH activity was determined using AEA (labelled with 3H in the ethanolamine part of the molecule) as substrate and measuring the 3H-ethanolamine formed. Reaction mix (total volume of 200 up contained: 2 μM AEA (2 μM AEA+5 nM 3H-AEA), 0.1% fatty acid free BSA, 5 μg protein, in 1 mM EDTA, 10 mM Tris pH 7.6 and 10 μM or 0.1 μM compounds. Stock solutions of the compounds to test (10 mM) were prepared in 100% DMSO and the DMSO concentration in the assay was 0.1%. After a 15 min preincubation period at 37° C., reaction was started by the addition of the substrate solution ([…]). Reaction was carried out for 10 min before termination by the addition of 400 μl activated charcoal suspension (8 g charcoal in 32 ml 0.5 M HCl in continuous agitation). After a 30 min incubation period at room temperature with agitation, charcoal was sedimented by centrifugation in microfuge (10 min at 13000 rpm). 200 μl of the supernatant were added to 800 μl Optiphase Supermix scintillation cocktail previously distributed in 24-well plates. Counts per minute (cpm) were determined in Microbeta TriLux scintillation counter (10 min counting or until s=2).
In each assay blanks (no protein, usually below 200 cpm) and controls (no compound) were present. The results are reported in Table 1 as % of control after blank subtraction.

| SMILES | In Vitro 100 nM (FAAH activity, % of control) (rat brain membranes, compound at 100 nM) | In Vitro FAAH activity, 100 nM | In Vitro FAAH activity, 10 uM |
| --- | --- | --- | --- |
| CN(C(=O)n1cnc(-c2cccc(OCc3ccccc3)c2)c1)C12CC3CC(CC(C3)C1)C2 [Compound 288, 4-[3-(benzyloxy)phenyl]-N-methyl-N-tricyclo[3.3.1.13,7]dec-1-yl-1H-imidazole-1-carboxamide] | 114.8 % of control | – | – |
| O=C(N1CCOCC1)n1ccc2cc(F)ccc21 [Compound 46, (5-fluoro-1H-indol-1-yl)(morpholino)methanone] | – | 104.3 % of control | – |
| CC1(C)COCN1C(=O)n1nnc2cc(-c3cccc(C(N)=O)c3)ccc21 [Compound 243, 3-(1-(4,4-dimethyloxazolidine-3-carbonyl)-1H-benzo[d][1,2,3]triazol-5-yl)benzamide] | – | 39.7 % of control | – |
| CC1OCCN1C(=O)n1cnc(-c2ccccc2)c1 (centres unmarked) [Compound 227, (2-methyloxazolidin-3-yl)(4-phenyl-1H-imidazol-1-yl)methanone] | – | 64.7 % of control | – |
| COc1ccc(NC(=O)n2nnc3ccccc32)cc1 [Compound 57, N-(4-methoxyphenyl)-1H-benzo[d][1,2,3]triazole-1-carboxamide] | – | 96.9 % of control | – |
| CN(C(=O)n1nnc2ccccc21)c1ccccn1 [Compound 84, N-methyl-N-(pyridin-2-yl)-1H-benzo[d][1,2,3]triazole-1-carboxamide] | – | 62.5 % of control | – |
| O=C(N1CCC(O)CC1)n1nnc2ccccc21 [Compound 159, (1H-benzo[d][1,2,3]triazol-1-yl)(4-hydroxypiperidin-1-yl)methanone] | – | 4.8 % of control | – |
| C[C@@H]1CN(C(=O)n2nnc3ccccc32)C[C@H](C)O1 [Compound 194, (1H-benzo[d][1,2,3]triazol-1-yl)((2S,6R)-2,6-dimethylmorpholino)methanone] | – | 64.2 % of control | – |
| CN(C(=O)n1cnc(-c2cccc(O)c2)c1)C1CCCC1 [Compound 262, N-cyclopentyl-4-(3-hydroxyphenyl)-N-methyl-1H-imidazole-1-carboxamide] | – | 7.5 % of control | – |
| C[C@@H]1CN(C(=O)n2nnc3ccccc32)C[C@@H](C)O1 [Compound 193, (1H-benzo[d][1,2,3]triazol-1-yl)((2R,6R)-2,6-dimethylmorpholino)methanone] | – | 110.2 % of control | – |
| O=C(N1CCCc2ccccc21)n1cnc(-c2ccccc2)c1 [Compound 37, (3,4-dihydroquinolin-1(2H)-yl)(4-phenyl-1H-imidazol-1-yl)methanone] | – | – | 51.7 % of control |
| CN(CCCc1ccccc1)C(=O)n1nnc2ccccc21 [Compound 118, N-methyl-N-(3-phenylpropyl)-1H-benzo[d][1,2,3]triazole-1-carboxamide] | – | 0 % of control | – |
| COc1ccc(N(C)C(=O)n2cnc(-c3ccccc3)c2)cc1 [Compound 17, N-(4-methoxyphenyl)-N-methyl-4-phenyl-1H-imidazole-1-carboxamide] | – | – | 65 % of control |
| CC(=O)N1CCN(C(=O)n2nnc3ccccc32)CC1 [Compound 178, 1-(4-(1H-benzo[d][1,2,3]triazole-1-carbonyl)piperazin-1-yl)ethanone] | – | 94.5 % of control | – |
| O=C(Nc1ccc(-c2ccccc2)cc1)n1ccc(-c2ccccc2)n1 [Compound 15, N-(biphenyl-4-yl)-3-phenyl-1H-pyrazole-1-carboxamide] | – | 103.8 % of control | 66.9 % of control |
| O=C(Nc1ccc(OCc2ccccc2)cc1)n1ccc(-c2ccccc2)n1 [Compound 11, N-(4-(benzyloxy)phenyl)-3-phenyl-1H-pyrazole-1-carboxamide] | – | – | 82.6 % of control |

More lines, now with the values ahead:

| In Vitro 100 nM (FAAH activity, % of control) (rat brain membranes, compound at 100 nM) | In Vitro FAAH activity, 100 nM | In Vitro FAAH activity, 10 uM | SMILES |
| --- | --- | --- | --- |
| – | 0.1 % of control | – | COc1ccc(OC2CCN(C(=O)n3nnc4ccccc43)CC2)cc1 [Compound 137, (1H-benzo[d][1,2,3]triazol-1-yl)(4-(4-methoxyphenoxy)piperidin-1-yl)methanone] |
| – | 96.1 % of control | – | CN(C(=O)n1cnc(-c2ccc(OCCN3CCOCC3)cc2)c1)c1ccccc1.Cl [Compound 230, N-methyl-4-(4-(2-morpholinoethoxy)phenyl)-N-phenyl-1H-imidazole-1-carboxamide hydrochloride] |
| – | 90 % of control | – | Br.CN(C(=O)n1cnc(-c2ccc(OCCN3CCCCC3)cc2)c1)c1ccccc1 [Compound 224, N-methyl-N-phenyl-4-(4-(2-(piperidin-1-yl)ethoxy)phenyl)-1H-imidazole-1-carboxamide hydrobromide] |
| – | 85.1 % of control | 0.7 % of control | COc1ccc(-c2cn(C(=O)N(C)c3ccccc3)cn2)cc1 [Compound 28, 4-(4-methoxyphenyl)-N-methyl-N-phenyl-1H-imidazole-1-carboxamide] |
| – | – | 93 % of control | COc1ccc(NC(=O)n2ccc(-c3ccc(-c4ccccc4)cc3)n2)cc1 [Compound 23, 3-(biphenyl-4-yl)-N-(4-methoxyphenyl)-1H-pyrazole-1-carboxamide] |
| – | 97.8 % of control | – | O=C(N1CCCc2ccccc21)n1cnc(-c2ccc(F)cc2)c1 [Compound 44, (3,4-dihydroquinolin-1(2H)-yl)(4-(4-fluorophenyl)-1H-imidazol-1-yl)methanone] |
| – | 34.5 % of control | – | Cc1ccc(OC2CCN(C(=O)n3cnc(-c4ccc(F)cc4F)n3)CC2)cc1 [Compound 134, (3-(2,4-difluorophenyl)-1H-1,2,4-triazol-1-yl)(4-(p-tolyloxy)piperidin-1-yl)methanone] |
| – | 0.3 % of control | – | O=C(N1CCC(CCCc2ccccc2)CC1)n1cnc(-c2ccc(Cl)cc2)c1 [Compound 197, (4-(4-chlorophenyl)-1H-imidazol-1-yl)(4-(3-phenylpropyl)piperidin-1-yl)methanone] |
| – | – | 5 % of control | COc1ccc(-c2cn(C(=O)N(C)c3ccc(F)cc3)cn2)cc1 [Compound 36, N-(4-fluorophenyl)-4-(4-methoxyphenyl)-N-methyl-1H-imidazole-1-carboxamide] |
| – | 0 % of control | – | O=C(N1CCN(c2ccc(OCc3ccccc3)cc2)CC1)n1nnc2ccccc21 [Compound 91, (1H-benzo[d][1,2,3]triazol-1-yl)(4-(4-(benzyloxy)phenyl)piperazin-1-yl)methanone] |
| – | 67.9 % of control | – | COc1ccc(-c2ncn(C(=O)N(C)c3ccccc3)n2)cc1 [Compound 64, 3-(4-methoxyphenyl)-N-methyl-N-phenyl-1H-1,2,4-triazole-1-carboxamide] |
| – | 85.1 % of control | – | Cc1ccc(OC2CCN(C(=O)n3cnc(-c4ccc(N5CCN(C)CC5)cc4)n3)CC2)cc1.Cl [Compound 132, (3-(4-(4-methylpiperazin-1-yl)phenyl)-1H-1,2,4-triazol-1-yl)(4-(p-tolyloxy)piperidin-1-yl)methanone hydrochloride] |
| – | 85.8 % of control | – | O=C(N1CCOCC1)n1cnc(-c2ccccc2)n1 [Compound 73, morpholino(3-phenyl-1H-1,2,4-triazol-1-yl)methanone] |
| – | 83.8 % of control | – | CN(C)C(=O)n1cnc(-c2ccc(N3CCN(c4ccccc4)CC3)cc2)n1 [Compound 138, N,N-dimethyl-3-(4-(4-phenylpiperazin-1-yl)phenyl)-1H-1,2,4-triazole-1-carboxamide] |
